Residues, ends and D or L forms follow the SMILES beside them.

Consider 1 molecule from patent publication US20240059740A1, “CYCLIC PEPTIDES AND USES THEREOF” (PRE[…] INC., priority 2020, published 2024).

One assay relates to MMP-2. Put plainly: Gelatin zymography of conditioned media, MMP-2 production. The class given is cell-based, human. The note with it: for metalloprotease production, MMP-2: compared to control containing no peptide. An excerpt: To assess whether the peptide SEQ ID NO.1 impacted MMP-2, MMP-9 and uPA production Zymography was used.
Zymography is a technique for studying hydrolytic enzymes on the basis of substrate degradation. The in-gel zymography hydrolytic enzymes are separated by their molecular weights and detected by their ability to degrade a substrate. To detect the activity of MMP-2 and MMP-9 in various cell lines, conditioned media were collected in 3 independent experiments and analysed by gelatin zymography to quantify the level of gelatin digestion, which reflects MMP-2 and MMP-9 activity and production. Casein-Plasminogen zymography was conducted to determine the activity level of uPA in the conditioned medium from various cell lines. Active uPA converts plasminogen into plasmin which then digests casein, thus clear bands where digestion of casein have occurred indirectly represent uPA activity.
The effect of the peptides on matrix protease production was tested using in-gel zymography. If the substrate included in the gel is gelatin, the enzymes detected are gelatinases: MMP-2 and MMP-9 (the latter is often of low abundance). If the gel contains casein and plasminogen, the enzymes tested are urokinase plasminogen activators (uPA); uPA is a therapeutic target in GBM.
An equal amount of protein from each sample was mixed with 5 μL of Laemmli buffer (0.01% Bromophenol Blue (W/V), 5% SDS (W/V), 22% glycerol (V/V), 14% 0.5 M Tris pH 6.8 (V/V)) and loaded onto a 10% polyacrylamide gel co-polymerized with 1 mg/ml of gelatin, and electrophoresed at 120 V for 2 hours on ice. The gel was incubated in […] solution (Triton X-100 2.5% (V/V), 1 M Tris pH 7.5 5% (V/V), 0.5 M CaCl2 1% (W/V) at room temperature overnight on an orbital shaker. The gel was incubated in a second solution for 3 hours at 37° C. The gel was then stained with Coomassie blue solution (Coomassie blue 0.25%, methanol 45%, acetic acid 10%) and destained in methanol 25% (V/V), acetic acid 10% (V/V) destaining solution until clear bands against the dark background appeared around 72 kDa and 95 kDa, representing MMP-2 and MMP-9 activity, respectively. Clear bands around 50 kDa appeared against the dark background representing uPA activity. The gels were scanned, and uPA, MMP-2 and MMP-9 were quantified by densitometry using NIH Image J software.
SEQ ID NO.1 was compared to a control containing no peptide to evaluate whether the peptide can reduce the production of matrix proteinases. […] This could be confirmed using a MMP-9 quantification kit, and altered production by a transcriptional mechanism can be unveiled using qRT-PCR.

Another assay has as its system U251 cells. Put plainly: BME cell invasion assay, U251. The format is cell-based, human. The settings on record: 24 h. Here is the method: To assess whether the ability of SEQ ID NO.1 to inhibit MMP-2 activity and, to a lesser extent, reduce the production of matrix proteinases and downregulate the expression of EMT markers, was of functional consequence in reducing the invasiveness of the GBM cells, the ability of the peptide was tested at the concentrations of 1, 10 and 100 μM (none of which are toxic to cells) to inhibit invasion of the GBM cells through a basement membrane. This assay, described in more detail below, is an in vitro surrogate for measurement of the in vivo invasion by tumour cells of their environment.
The cell invasion assay employs a simplified Boyden chamber-like design that consists of two chambers separated by a filter (an 8 μm polycarbonate (PC) membrane) coated with basement membrane or different extracellular matrix components. The cell suspension is placed in the top chamber and incubated in the presence of test media containing specific chemo-attractants in the bottom chamber. Cells migrate from the top chamber to the bottom of the filter by degrading the coating over the filter pores. Detection of cell invasion is quantified using Calcein AM. Cell dissociation/Calcein AM solution is placed in the bottom chamber to dissociate the migrating cells from the filter. Calcein AM is internalized by the cells, and intracellular-esterases cleave the aceto-methylester (AM) moiety. Free Calcein fluoresces brightly and is used to quantitate the number of cells that have invaded or migrated by comparison with a standard curve (In Vitro Technologies Pty Ltd, (https://lifescience.invitro.com.au/brands/r-and-d-systems/).
The filter was coated with PathClear® growth factor reduced BME. The selected peptides were applied to the cells in both upper and lower wells to make sure the concentration of peptides were the same and the chemoattractant was serum at a concentration of 2% (for adherent U87 & U251 cells) or growth factor mix required in the medium (for non- adherent, 081024 oncospheres).
Cell invasion was determined using CultureCoat® 96 Well Medium BME Cell Invasion assay. Briefly, the cells were pre-starved 24 h before harvest. Then seeding 25,000 per well of cell in the upper chamber with serum free medium together different concentration of peptide. The bottom chamber also added different concentration of peptides with 2% (V/V) serum for GBM adherent cells or growth factor mix for neurosphere cells as chemoattractant. After 24 h incubation, the invading cells were measured by Calcein AM and calculated based on standard curve.
The results are shown in Table 12, the results are expressed as % inhibition.

Turning to `CC(C)C[C@@H]1NC(=O)[C@H](C)NC(=O)[C@@H](NC(=O)[C@@H]2CCCN2C(=O)[C@@H](N)CC(C)C)CSSC(C)(C)CNC(=O)CC[C@@H](C(=O)N[C@@H](CCCNC(=N)N)C(N)=O)NC(=O)[C@H](CC(=O)O)NC(=O)[C@H](CC(N)=O)NC1=O` [SEQ ID NO: 1, Leu-Pro-c(SSA*-Ala-Leu-Asn-Asp-Glu)-Arg-NH2] (HELM PEPTIDE1{L.P.C.A.L.N.D.E.R.[am]}|CHEM1{[CC(C)(CN[*:2])S[*:1]]}$PEPTIDE1,CHEM1,3:R3-1:R1|PEPTIDE1,CHEM1,8:R3-1:R2$$$V2.0; N-terminus assumed), the “metalloprotease production, MMP-2” value was 106.4 in the assay with MMP-2 (081024 cells), 102.1 in the assay with MMP-2 (U87 cells) and 110.2 in the assay with MMP-2 (U251 cells). In the assay on MMP-2 (overall, all cell lines), the “production of MMP-2 (overall, in words)” value is “did not decrease”. Further, the results for the “Invasion Inhibition Index (%)” value with U251 cells (1 μM), in the assay on U251 cells (10 μM) and with U251 cells (100 μM) were 13.2%, 17.8% and 26.7%, respectively.
